Measurements published in patent US4952578A, “Cephem compound and a process for preparation thereof” (Fujisawa Pharmaceutical Co., Ltd., priority 1987, dated 1990).
In brackets after ≈: the same amount, converted by molar mass.

Test system: P. aeruginosa 26
Test: In vitro antibacterial activity (MIC) by two-fold agar-plate dilution method
Type: cell-based
Conditions: Pseudomonas aeruginosa, HI-agar, 37° C., 20 hours, read-out: MIC (minimal inhibitory concentration)
Experimental: Now in order to show the utility of the object compound [I], the test data on MIC (minimal inhibitory concentration) of representative compound [I] of this invention is shown in the following.
In vitro antibacterial activity was determined by the two-fold agar-plate dilution method as described below.
One loopful of an overnight culture of each test strain in Trypticase-soy broth (10^8 viable cells per ml) was streaked on heart infusion agar (HI-agar) containing graded concentrations of representative test compound, and the minimal inhibitory concentration (MIC) was expressed in terms of μg/ml after incubation at 37° C. for 20 hours.

CO/N=C(\C(=O)N[C@@H]1C(=O)N2C(C(=O)[O-])=C(C[n+]3ccc(N)n3CCO)CS[C@H]12)c1csc(N)n1 [Test Compound (1), 7β-[2-(2-Aminothiazol-4-yl)-2-methoxyiminoacetamido]-3-[3-amino-2-(2-hydroxyethyl)-1-pyrazolio]methyl-3-cephem-4-carboxylate (syn isomer)]
MIC: 0.39 µg/mL (≈ 0.746 µM)
